Source: paper PMC11093748, “De novo identification of CD4^+ T cell epitopes” (Nature Methods, 2024)

How the values were obtained:
[1] = tested on: GSE.20D11 TCR; assay: HLA-DQ8 SABR-II (+ HLA-A2.1 SABR) library screen, enrichment score; format: cell-based, human
From the text: To test whether HLA-DQ8 SABR-II could be used for antigen discovery, we curated a list of insulin B, insulin C and HIP epitopes published by Wiles et al.[58] and cloned them into the DQ8 SABR-II backbone using the same pooled cloning strategy as the I-Ag7 SABR-II library (Supplementary Table 2). Furthermore, we combined SABR-I (the HLA-A*0201 library reported in our previous work[27]) and SABR-II libraries at a cellular level and screened against the GSE.20D11 TCR.
(§1) To generate the I-Ag7 restricted SABR library, we combined all Immune Epitope Database epitopes with a published immunopeptidome generated by Wan et al.[51]. Sequences were filtered remove all post-translational modifications except deamidation and HIPs and trimmed between 9–25 amino acid lengths. For the insulin C HIP and HLA-DQ8 library, non-contiguous epitopes from Wiles et al.[66] as well as all Immune Epitope Database epitopes were combined to generate the epitope list. Epitope sequences were back-translated using the backtranslate_fast.py script.
(§2) For SABR library screens, 3 × 10^6 NFAT–GFP Jurkat cells expressing the SABR library were labeled with CellTrace Violet (BioLegend) according to the manufacturer’s protocol before incubation with 3 × 10^6 Jurkat cells expressing the TCR of interest. These mixtures were incubated in a six-well plate for 16–20 h. Cells were stained with anti-CD69-APC-Cy7 where indicated (BioLegend) and the top 1–2% of GFP^+CD69^+ cells were sorted for genomic DNA extraction, indexing and sequencing (see below). Multiplexed assays were scaled on a per-TCR basis (for example 3 × 10^6 for each of three TCRs against 9 × 10^6 library cells). For single SABR assays, unless otherwise defined, 5 × 10^5 SABR expressing NFAT–GFP Jurkat cells (or 5KC cells) were labeled with CellTrace Violet (BioLegend) according to the manufacturer’s protocol before incubation with 5 × 10^5 TCR-expressing Jurkat cells (or 5KC cells) in a round-bottom 96-well plate for 16–20 h. Cells were stained with anti-CD69-APC-Cy7 when indicated and acquired on the Attune NxT flow cytometer (Thermo Fisher Scientific). All flow analysis was performed using FlowJo (BD). For Daudi cell co-culture, 1 × 10^6 Jurkat cells expressing the TCR of interest were incubated with 1 × 10^6 Daudi cells expressing a SABR of interest for 3 days. On day 3, cells were labeled with anti-RT1B-PE and anti-Fas-APC-Cy7 before being acquired on the Attune NxT flow cytometer.
Genomic DNA was extracted from sorted cells immediately after sorting, using the PureLink genomic DNA extraction kit (Life Technologies). The integrated SABR vectors were amplified with KOD polymerase (Millipore) and two rounds of amplification. In the first round, IDT-UD-SABR-C2-F and IDT-UD-SABR-C2-R primers were used to amplify the epitope. In the second round, UDI0001-R and UDI0001-F primers (representative of index 1) were used to add Illumina unique dual indexes (UDIs) to the amplicons. A different UDI was used for each sample. The reactions were pooled and purified with the NucleoSpin gel and PCR purification kit (Takara). The purified PCR product was checked before sequencing using 2% agarose gel and subjected to sequencing on a HiSeq4000 (Fulgent Genetics). Unaligned reads generated by the sequencer were stored in FASTQ files. FASTQ files were concatenated to generate one file for read1 and read2 each. The sequences were demultiplexed into individual indexes using demultiplex_dual.py. Epitopes were extracted and scored using epitope_extract_fastq_v1.1.py and merge_counts_split_v2.1.py. The ES was calculated using Microsoft Excel (Microsoft) workbooks.

[2] = tested on: TCR3; assay: I-Ag7 SABR-II HIP library screen, enrichment score; format: cell-based, mouse
From the text: (§3) Given the predominance of HIP-reactive TCRs, we hypothesized that there may be other TCRs that respond to HIPs that were not encoded in our initial library configuration. While the initial I-Ag7 SABR-II library consisted of a number of HIPs, HIP formation is thought to be more widespread in pancreatic β-cells[52],[70]. Therefore, we sought to construct a defined, HIP-focused library to probe whether there were any undiscovered HIP-reactive TCRs that could be recognized by the clonally expanded TCR in our dataset. To test this, we utilized a published proteomic dataset, which predicted that several proteins that were highly expressed in secretory granules of β-cells may contribute to HIP formation. Using their predictions, we built a theoretical HIP library, in which all possible ‘left’ halves of the insulin C chain derived from natural cleavage products were fused to ‘right’ halves derived from secretory granule proteins (Fig. 5a). This 2,561-epitope library (12–25 amino acids per epitope) consisted of only HIPs and a small number of positive control epitopes (Supplementary Table 5). We screened the top three clonally expanded TCRs (TCR1, TCR2 and TCR3) against this library, as these TCRs had not been de-convoluted using the original library. […] To confirm that the HIP itself was important for the cognate interaction, we cloned single 14-mer epitopes into SABR-IIs consisting of seven amino acids of the left portion of the HIP and seven amino acids of the right portion of the HIP. In this way, no nine amino acids from either peptide sequence alone could occupy the binding pocket of I-Ag7, ensuring that TCR reactivity spanned the HIP junction. […] Of note, in all the epitopes that were tested, the ‘left’ half derived from insulin C was conserved, whereas the ‘right’ halves were derived from several other proteins (Fig. 5d). […] Moreover, the promiscuous binding of TCR3 to HIPs corroborates evidence from other NOD mouse-derived TCRs reacting to multiple HIPs[72].
as §1
as §2, with “cytometer. […]” for “cytometer.”

[3] = tested on: TCR4; assay: Single SABR-II co-incubation, NFAT-GFP Jurkat; format: cell-based, mouse; conditions: TCR 4, Fig 5C
From the text: (§4) We performed systematic screening of the cloned TCRs against the I-Ag7 SABR-II library. Several TCRs along with a positive control (such as BDC2.5 or 4-8Ins) were screened individually against the library for each sort (Extended Data Fig. 6a and Supplementary Table 4). High- and low-confidence ES zones for each screened TCR were defined by the ES values of the control TCR’s cognate epitopes. For all putative cognate epitopes, single SABR-IIs were constructed, expressed in NFAT–GFP Jurkat cells and used for co-incubation with the corresponding TCRs. Co-incubation assays that yielded a GFP signal higher than that obtained in assays with no TCR were determined to be positive and the epitopes deemed true cognate ligands (Extended Data Fig. 6b,c). Using this strategy, we obtained epitopes in the high-confidence zone for eight TCRs (Fig. 3a and Extended Data Fig. 6b,d). Among numerous altered peptide ligands (APLs), these TCRs recognized the physiological InsC-ChgA HIP ([…] and analogs, recognized by TCR5, TCR6B, TCR9 and TCR34), InsC-Iapp HIP ([…] and analogs, recognized by TCR4 and TCR15) and InsB9:23 ([…] and analogs recognized by TCR24 and TCR37). These cognate high-confidence hits were validated using single SABR-II co-incubation assays (Fig. 3b and Extended Data Fig. 7a). Further validations using in vitro mouse interleukin-2 (mIL-2) secretion by TCR-expressing 5KC reporter cells[13] or CD25 expression by TCR-expressing splenic CD4^+ T cells upon stimulation with the cognate epitope were performed (Extended Data Fig. 7b,c). Furthermore, low-confidence hits were called for ten TCRs and tested in co-incubation assays.
as §2

[4] = tested on: TCR3; assay: Single SABR-II co-incubation, NFAT-GFP Jurkat; format: cell-based, mouse; conditions: TCR 3, Fig 5C
From the text: as §3, §2

[5] = tested on: Jurkat cells, No TCR; assay: Single SABR-II co-incubation, background without TCR; format: cell-based, human; conditions: No TCR, Fig 5C
From the text: as §4, §2

[6] = ES = TCRObserved - TCRPredicted, TCRPredicted = LIBObserved x SLOPE + INTERCEPT, SLOPE 1.10224, INTERCEPT -1.65707e-5
[7] = HLA-A2.1 and HLA-DQ8 SABR libraries screened simultaneously, reads mapped to DQ8 library, one biological experiment
[8] = HIP library, TCR 3, TCR_Mean of 3 replicates minus PREDICTED_TCR (slope 0.926662, intercept 2.88051e-5)
[9] = I-Ag7 HIP library, one biological experiment

Sequence	%GFP+CD69+ cells of SABR-NFAT-GFP-Jurkat cells ([3]; technical replicate 1)	%GFP+CD69+ cells of SABR-NFAT-GFP-Jurkat cells ([3]; technical replicate 2)	%GFP+CD69+ cells of SABR-NFAT-GFP-Jurkat cells ([4]; technical replicate 1)	%GFP+CD69+ cells of SABR-NFAT-GFP-Jurkat cells ([4]; technical replicate 2)	%GFP+CD69+ cells of SABR-NFAT-GFP-Jurkat cells ([5]; technical replicate 1)	%GFP+CD69+ cells of SABR-NFAT-GFP-Jurkat cells ([5]; technical replicate 2)	other results
AAPSVFIFPPSDEQLK							Enrichment score [1, 6]: -0.0003017; Enrichment score [1, 7]: -0.0003017
AASKERSGVSL							Enrichment score [1, 6]: 3.541e-5; Enrichment score [1, 7]: 3.541e-5
APKRPPSAF							Enrichment score [1, 6]: 2.7496e-5; Enrichment score [1, 7]: 2.7496e-5
DPQVEQLELGGSKDSDKGQQDGFE							Enrichment score [2, 8]: 0.001805
EDPQVEQLELGGAEDQELESLSAI							Enrichment score [2, 8]: 0.001322
EDPQVEQLELGGKADEFPDFYDSE							Enrichment score [2, 8]: 0.001943
EQLELGGHIEDSGE [14-mer hybrid insulin peptide spanning the fusion junction, TCR3 hit]	13.2%	14.3%	29.1%	28.9%	14.1%	13.9%	
EQLELGGKADEFPD [14-mer hybrid insulin peptide spanning the fusion junction, TCR3 hit]	11.4%	11.5%	38.6%	37.2%	11.2%	12.4%	
EVEDEVEDPQVAQLELGGGPGAGD [theoretical HIP of the I-Ag7 HIP library]							Enrichment score [2, 9]: 2.439e-5
EVEDEVEDPQVEQLELGGSPGDLQ [theoretical HIP of the I-Ag7 HIP library]							Enrichment score [2, 9]: 0.0001951
EVEDFVKQHLCGPHLVEALYLVCG [theoretical HIP of the I-Ag7 HIP library]							Enrichment score [2, 9]: -1.381e-6
EVEDFVKQHLCGSHLVEALYLVCG [theoretical HIP of the I-Ag7 HIP library]							Enrichment score [2, 9]: -0.0001794
EVEDGIVDQCCTSICSLYQLENYC [theoretical HIP of the I-Ag7 HIP library]							Enrichment score [2, 9]: 1.206e-5
EVEDPQVEQLELNAARDPNRESLD							Enrichment score [2, 8]: 0.002309
QLELGGSKDSDKGQ [14-mer hybrid insulin peptide spanning the fusion junction, TCR3 hit]	9.32%	9.4%	10.5%	9.28%	9.03%	10.7%	
QVEQLELNAARDPN [14-mer hybrid insulin peptide spanning the fusion junction, TCR3 hit]	2.09%	2.09%	66.4%	66.1%	2.19%	2.2%	
VEDPQVEQLELGSGKEVKGEEKGE							Enrichment score [2, 8]: 0.002292
VEQLELGAKQEEKE [14-mer hybrid insulin peptide spanning the fusion junction, TCR3 hit]	1.47%	1.36%	80.7%	80.6%	1.47%	1.55%	
VEQLELGSGKEVKG [14-mer hybrid insulin peptide spanning the fusion junction, TCR3 hit]	4.13%	4.17%	78.8%	77.6%	3.79%	4%	
